Experimental data from PubChem BioAssay (NCI).
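Grown in 96-well plates, cells were treated for 48 hours with each compound at five concentrations. Insufficient inhibition: endpoint recorded as highest concentration tested. GI50: concentration for 50% inhibition of growth. The concentration for full growth arrest is given as TGI.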

Tests used:
Experiment in all cases: growth of human tumour cells (NCI), 48 h
TK-10 renal = system: TK-10 renal
MOLT-4 leukemia = system: MOLT-4 leukemia
HOP-92 NSCLC = system: HOP-92 NSCLC
LOX IMVI melanoma = system: LOX IMVI melanoma
SF-539 CNS = system: SF-539 CNS
MDA-N = system: MDA-N
NCI/ADR-RES ovarian = system: NCI/ADR-RES ovarian
HOP-62 NSCLC = system: HOP-62 NSCLC
SNB-75 CNS = system: SNB-75 CNS

SMILES	TGI (TK-10 renal) [µM]	TGI (MOLT-4 leukemia) [µM]	TGI (HOP-92 NSCLC) [µM]	TGI (LOX IMVI melanoma) [µM]	TGI (SF-539 CNS) [µM]	TGI (MDA-N) [µM]	TGI (NCI/ADR-RES ovarian) [µM]	TGI (HOP-62 NSCLC) [µM]	TGI (SNB-75 CNS) [µM]	GI50 (TK-10 renal) [µM]	GI50 (MOLT-4 leukemia) [µM]	GI50 (HOP-92 NSCLC) [µM]	GI50 (LOX IMVI melanoma) [µM]	GI50 (SF-539 CNS) [µM]	GI50 (NCI/ADR-RES ovarian) [µM]	GI50 (HOP-62 NSCLC) [µM]	GI50 (SNB-75 CNS) [µM]
Cc1nc2c(Br)cc(Br)cc2c(=O)n1-c1ccccc1NC1OC(CO)C(O)C(O)C1O (stereo not given)	> 100	> 100	> 100	> 100	> 100	> 100	> 100	> 100	> 100								
O=C1/C(=C/c2ccccc2)Oc2cc(O)ccc21	> 100	> 100			> 100	> 100	> 100	> 100	> 100								
Clc1ccc2c(c1)N(CCCN1CCCC13CCCCC3)c1ccccc1S2	29.7	18.9	38.2	26.5	33.4	26.2	44.5	33.4									
COC(=N)C1(C#N)NC(c2ccsc2)C(C#N)(C#N)NC1c1ccsc1 (stereo not given)	> 100	> 100	> 100	> 100	> 100	> 100	> 100	> 100	> 100								
O=C(CNc1ccccc1C(=O)O)Nn1cnc2ccc(S(=O)(=O)Nc3ccccc3C(=O)O)cc2c1=O	> 100	> 100	> 100	> 100	> 100	> 100	> 100	> 100	> 100								
C=C(NC(=O)C(=C)NC(=O)c1ccc2c(n1)-c1coc(n1)C(=C)NC(=O)C(=C)NC(=O)c1nc(oc1C)C(=C)NC(=O)C(C(C)(C)O)NC(=O)C(=C)NC(=O)c1coc(n1)/C(=C/C)NC(=O)[C@H]([C@@H](C)O)NC(=O)c1csc-2n1)C(N)=O (stereo not given in full)	> 87.5	> 87.5	> 87.5	> 87.5	> 87.5	> 87.5	> 87.5	> 87.5	> 87.5								
CC(=O)NC1C(OCc2ccccc2)OC(CO)C(O)C1OC(C)C(=O)N[C@@H](C)C(=O)N[C@H](CCC(=O)NCCNCCNc1c2ccccc2nc2cccc([N+](=O)[O-])c12)C(N)=O (stereo not given in full)	3.54	> 100	0.169	0.534	0.991	0.305	10.6	5.17	0.883								
CC(C)(C)C1CCC2c3c([nH]c4ccccc34)C3C(=O)N(c4ccc([N+](=O)[O-])cc4)C(=O)C3C2C1 (stereo not given)	78.2	56.8	17.5	20.8	42.7	> 100	41	33.8	38.4								
COc1cc2c(cc1OC)C(=O)N(c1ccc(OCCN3CCCC3)cc1)C2	> 100	> 100	> 100	> 100	> 100	> 100	> 100	> 100									
FC1=C2C3CCC(C3)C2C1(F)F (stereo not given)	> 100	> 100		> 100	> 100	> 100	> 100	> 100	> 100								
CC(C)(CO[C@H]1C[C@H]2CC[C@@]1(C)C2(C)C)[N+](=O)[O-]	34	50.5	43.4	35.1	32.1	29.4	90.3	38.4	45.1								
COC1CC(C)(NC(=O)C(F)(F)F)C2OC(c3ccccc3)OCC2O1 (stereo not given)	> 100	> 100	> 100	> 100	> 100	> 100	> 100	> 100	> 100								
CC1=C(C)C(=O)C(C2=CC(=O)c3ccccc3C2=O)=C(C2=CC(=O)c3ccccc3C2=O)C1=O	> 38.4	> 36.2	> 83.3	> 21.2	> 100		> 100	33.4	31.5								
CCN(CC)C(=S)SC(C(=O)Nc1nnc(-c2ccc(Cl)cc2)o1)c1ccccc1 (stereo not given)	62.3	> 100	51.5	40.2	30.5	50.3	30.5	43.1									
C=C(C)C1CC(=O)C(C)=C(O)C1 (stereo not given)	> 100	> 100		> 100	> 100	> 100	> 100	> 100	> 100								
O=C(O)c1c(CC(Cc2ccc3c(c2)CCC3)C(=O)O)ccc2c1CCC2 (stereo not given)	> 100	> 100	> 100	> 100	> 100	> 100	> 100	> 100									
CCC1(O)CC(CCN(Cc2ccccc2)C(=O)OCc2ccccc2)C(OCc2ccccc2)C1O (stereo not given)	36.8	7.56		86.7		98.8	25.7	29.6	25.7								
COC(=O)[C@]1(c2cc3ccccc3n2S(=O)(=O)c2ccccc2)CC2CN(C(=O)OCc3ccccc3)C1C1OC(C)(C)OC21 (stereo not given in full)	> 100	> 100	> 100	> 100		> 100	> 100	> 100	> 100								
CSC(SC)=C(C(=O)c1ccc(Cl)cc1)n1c(=O)sc2cc(Br)ccc21	> 100	> 100	> 100	> 100	> 100	> 100	> 100	> 100									
C=C1CCC[C@@H](C)C(O)[C@@H]2OC(=O)C(=C)[C@@H]2C[C@@H](OC(C)=O)[C@@]2(C)CC[C@@H]1O2 (stereo not given in full)	14.8	15.4	15		15.3		19.3	18.7	10.1								
COC(=O)c1sc(=O)sc1SCc1cccc(CSc2sc(=O)sc2C(=O)OC)c1	57.5	> 100	95.6	> 100		> 100	> 100	35.7									
COC(=O)C1=C(CCCCO[Si](C)(C)C(C)(C)C)NC(=O)N2[C@H](CCOCc3ccccc3)CC[C@@H]12	> 100	> 100	> 100		> 100	> 100	> 100	> 100	> 100								
CCOP(=O)(/C=C/n1cc(C)c(=O)[nH]c1=O)OCC	> 100	> 100		> 100	> 100	> 100	> 100	> 100	> 100								

SMILES	TGI (TK-10 renal) [µM]	TGI (MOLT-4 leukemia) [µM]	TGI (HOP-92 NSCLC) [µM]	TGI (LOX IMVI melanoma) [µM]	TGI (SF-539 CNS) [µM]	TGI (MDA-N) [µM]	TGI (NCI/ADR-RES ovarian) [µM]	TGI (HOP-62 NSCLC) [µM]	TGI (SNB-75 CNS) [µM]	GI50 (TK-10 renal) [µM]	GI50 (MOLT-4 leukemia) [µM]	GI50 (HOP-92 NSCLC) [µM]	GI50 (LOX IMVI melanoma) [µM]	GI50 (SF-539 CNS) [µM]	GI50 (NCI/ADR-RES ovarian) [µM]	GI50 (HOP-62 NSCLC) [µM]	GI50 (SNB-75 CNS) [µM]
O=c1[nH]c(=O)n(COC(CO)CO)cc1-c1ccccc1	> 100	> 100	> 100	> 100		> 100	> 100	> 100	> 100								
CC(Nc1ccc(Cl)cc1)c1ccncc1 (stereo not given)	> 100	> 100		> 100	> 100	> 100	> 100	> 100	> 100								
CN(CCCCCl)P(=O)(OCc1ccc([N+](=O)[O-])o1)OCC1OC(n2ccc(N)nc2=O)C(O)C1O (stereo not given)	> 100	11		20.5	38.9	40.3	> 100	66.8	5.59								
COc1ccc(N2C(=O)C3c4[nH]c5c(C)cccc5c4C4CCC(C(C)C)CC4C3C2=O)cc1 (stereo not given)	76.8	11.2	34.4	19.3		29.2	51.1	22.7	9.4								
CCOC(=O)NC(=S)N(CC(=O)c1cc(OC)c(OC)c(OC)c1)c1ccc(Cl)cc1	> 100	> 100	> 100	> 100	> 100		> 100	> 100	> 100	36.9	52.3	38.9	23.7	> 100	56.5	> 100	34.1
C=C1c2nc3ccccc3n2C=C(c2ccc(C)cc2)N1c1ccc(OC)cc1	> 100	> 100	> 100	> 100	> 100		> 94.8	> 100	> 100								
N#Cc1c(-c2ccc([N+](=O)[O-])cc2)c(C#N)c(=O)n(NS(=O)(=O)c2ccccc2)c1S	> 100	46.5	> 100	38	46.1		> 100	> 100	> 100								
C/C(=C1\N=C(c2ccccc2)OC1=O)c1ccccc1	> 100	> 100	> 100	> 100	> 100			> 100	> 100								
Cc1nc(NC(C)(CO)CO)nc(N/N=C/c2ccc(Cl)cc2)c1C(=O)Nc1ccc(Cl)cc1	> 100	> 100		> 100	> 100	> 100	> 100	> 100	> 100								
Nc1[nH]c(=O)nc2c1ncn2C1OC(CO)C(O)C1O (stereo not given)	> 100	63.3	> 100	> 100		> 100	51.1	> 100	20.6								
O=C1c2ccccc2-c2nc3ccncc3n21	> 100	> 100	> 100		> 100	> 100	> 100	> 100	> 100								
COc1cc2c(/C=C3/C(=O)Nc4ccccc43)c(Cl)n(Cc3ccc(Cl)cc3)c2cc1C	7.67	0.627	39.5	2.54	0.668		0.612	0.821	0.898								
CCOC(=O)c1cc(-c2ccc(OC)cc2)c([N+](=O)[O-])[nH]1	> 10	> 10	> 10		> 10	> 3.16		> 10	> 10								
CCOC(=O)c1c(N)sc2c1C(C(=O)OCC)CCCC2 (stereo not given)	> 100	> 100	> 100			> 100		> 100	> 100								
N[C@@H](CCC(=O)NC(Cc1ccccc1)C(=O)NCP(=O)(O)O)C(=O)O (stereo not given in full)	> 100	> 100		> 100	> 100	> 100	> 100	> 100									
O=C1Nc2ccccc2/C1=C\c1c(Cl)n(-c2ccccc2)c2ccccc12	27	> 100	7.63	17.8	18.4		8.67	20.6	7.03								
CC1=NN(C(=O)CC(=O)Nc2cccc(C)c2)C(=O)C1N=Nc1ccc(S(=O)(=O)CCOS(=O)(=O)O)cc1 (stereo not given)	26.2	> 31.7	17.9	5.47	6.49	0.902		25.9	19.7								
O=C1c2cc3c(cc2-c2c1c1cc(F)c(F)cc1c(=O)n2CCCn1ccnc1)OCO3	> 100	1.24			0.0457			0.0477	0.11	0.25	< 0.01			< 0.01		< 0.01	< 0.01
Oc1ccc(C(O)C2CCCCN2)cc1O (stereo not given)	> 100		> 100	65.5	> 100	> 100	> 100	> 100	> 100								
COc1ccc(-c2ccc(C(=O)C=P(c3ccccc3)(c3ccccc3)c3ccccc3)cc2)cc1	47.1	10.9	34	31.5	35.9	28.9	37.5	43.9									
O=c1c2cc(Br)cc(Br)c2[nH]c(=S)n1-c1ccc(N=Nc2ccc(O)c3cccnc23)cc1	> 100	> 100	41.6	> 100	31.3	> 100		> 100	> 100								
N#Cc1c(NC(=S)Nc2ccc(Cl)cc2)sc2c1CCN(N1CCc3c(sc(NC(=S)Nc4ccc(Cl)cc4)c3C#N)C1)C2	> 100	> 100		23.4	34.2	> 100	> 100	55.2	> 100								
C/C(=N\Nc1nc2ccccc2s1)c1ccncn1			> 30.1		35.9	> 100	1.67	> 36.3	24.4								
